Experimental findings from patent US20250289789A1, “REVERSIBLE LYSINE COVALENT MODIFIERS OF CDK2 AND USES THEREOF” (Terremoto Biosciences, Inc., priority 2023, published 2025) are described below.

What all share (format): cell-based
In assay [1] the target is T1, CDK1-NanoLuc fusion with CCNB1 in 293T or 293 cells (Homo sapiens, UniProt P06493).
T1 construct: host or cells: 293T (ATCC CRL-3216) or 293 (ATCC CRL-1573)
Nature of the assay: NanoBRET Target Engagement (TE) Intracellular Kinase Assay, CDK1/CCNB1. As to conditions: NanoBRET TE intracellular kinase assay, 2-hour incubation, read-out: NanoBRET-CDK1/B1 IC50. The procedure:
Inhibitory effects of compounds were measured in NanoBRET TE Intracellular Kinase Assay. 293T (ATCC; CRL-3216) or 293 (ATCC; CRL-1573) cell lines were maintained in 90% DMEM and 10% fetal bovine serum at 37° C., 5% CO2, and 95% relative humidity. Cells were trypsinized and resuspended in assay media (99% Opti-MEM I Reduced Serum Medium, no phenol red, and 1% fetal bovine serum). Cells were co-transfected with 1 μg/mL of CDK-NanoLuc Fusion Vector (Promega; NV2701 for CDK1, NV2781 for CDK2, NV2811 for CDK4, NV2841 for CDK6) and 1 μg/mL of the corresponding Cyclin Expression Vector (Promega; NV2601 for CCNB1, NV2641 for CCNE1, NV2621 for CCND1, NV2631 for CCND3) using FuGENE HD Transfection Reagent (Promega; E2311). 40 uL/well of cells with transfection mixture were seeded in 384-well plates at 1.25×10^5 to 2×10^5 cells/mL and incubated for 24 hours at 37° C., 5% CO2, and 95% relative humidity. On the next day, 100 nL of 100 μM NanoBRET Tracer K-10 (Promega; N2640) and 40 nL of 1000× test compounds prepared in DMSO were added to the cells in each well of 384-well plates for a 2-hour incubation at 37° C., 5% CO2, and 95% relative humidity. 20 uL/well of 3× Intracellular TE Nano-Glo Substrate/Inhibitor (Promega; N2162) were added to 384-well plates and incubated for 3 minutes at room temperature. NanoBRET signals (donor emission wavelength at 450 nm, acceptor emission wavelength at 610 nm) were measured using Envision plate reader (PerkinElmer). NanoBRET ratio was calculated by: BRET Ratio=raw signal for acceptor/raw signal for donor. Dose response curve normalized to DMSO control was plotted using four-parameter logistic model for IC50 calculation.
On the technique in general: In BRET a luciferase serves as donor, and the signal depends on an acceptor being close.

In assay [2] the target is T2, CDK2-NanoLuc fusion with CCNE1 in 293T or 293 cells (Homo sapiens, UniProt P24941).
T2 construct: host or cells: 293T (ATCC CRL-3216) or 293 (ATCC CRL-1573)
The experiment in a line: NanoBRET Target Engagement (TE) Intracellular Kinase Assay, CDK2/CCNE1. As to conditions: NanoBRET TE intracellular kinase assay, 2-hour incubation, read-out: NanoBRET-CDK2/E1 IC50.

Assay [3] addresses T3, CDK4-NanoLuc fusion with CCND1 in 293T or 293 cells (Homo sapiens, UniProt P11802).
T3 construct: host or cells: 293T (ATCC CRL-3216) or 293 (ATCC CRL-1573)
The experiment in a line: NanoBRET Target Engagement (TE) Intracellular Kinase Assay, CDK4/CCND1. Particulars: NanoBRET TE intracellular kinase assay, 2-hour incubation, read-out: NanoBRET-CDK4/D1 IC50.

For assay [4], the system named is Phospho-Rb Ser807/811 in OVCAR3 cells. The experiment in a line: OVCAR3 Phospho-Rb Ser807/811 HTRF assay. Particulars: Homo sapiens, OVCAR-3, 1 h, OVCAR3 cells, Phospho-Rb Ser807/811 HTRF, 1 hour incubation; read-out: pRb-OVCAR3 IC50. The protocol: Cells were trypsinized and resuspended in 1 mM hydroxyurea (Sigma; H8627), 90% RPMI and 10% fetal bovine serum. […] Dose response curve normalized to DMSO control was plotted using four-parameter logistic model for IC50 calculation.
Background: In TR-FRET formats the signal depends on donor and acceptor labels being close together.

Some results are limits rather than exact numbers.

T3 sequence (P11802 whole entry, the tested form may be a part): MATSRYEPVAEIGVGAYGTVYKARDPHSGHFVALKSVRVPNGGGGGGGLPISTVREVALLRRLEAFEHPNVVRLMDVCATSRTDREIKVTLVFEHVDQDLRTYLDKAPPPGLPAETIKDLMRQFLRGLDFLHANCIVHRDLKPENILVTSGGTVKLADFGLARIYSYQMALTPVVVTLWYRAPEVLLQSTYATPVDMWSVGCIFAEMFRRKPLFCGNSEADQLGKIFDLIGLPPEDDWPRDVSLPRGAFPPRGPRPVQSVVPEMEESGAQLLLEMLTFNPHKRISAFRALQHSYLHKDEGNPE
T3 sequence (P24385 whole entry partner, the tested form may be a part): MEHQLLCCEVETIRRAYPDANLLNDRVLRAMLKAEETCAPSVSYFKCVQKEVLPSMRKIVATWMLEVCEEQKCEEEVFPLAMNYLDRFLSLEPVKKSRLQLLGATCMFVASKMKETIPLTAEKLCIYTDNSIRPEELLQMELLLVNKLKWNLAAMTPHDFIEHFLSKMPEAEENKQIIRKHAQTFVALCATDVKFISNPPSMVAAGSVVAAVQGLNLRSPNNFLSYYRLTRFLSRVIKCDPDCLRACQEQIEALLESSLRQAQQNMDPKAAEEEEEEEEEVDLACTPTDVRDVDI
T1 sequence (P06493 whole entry, the tested form may be a part): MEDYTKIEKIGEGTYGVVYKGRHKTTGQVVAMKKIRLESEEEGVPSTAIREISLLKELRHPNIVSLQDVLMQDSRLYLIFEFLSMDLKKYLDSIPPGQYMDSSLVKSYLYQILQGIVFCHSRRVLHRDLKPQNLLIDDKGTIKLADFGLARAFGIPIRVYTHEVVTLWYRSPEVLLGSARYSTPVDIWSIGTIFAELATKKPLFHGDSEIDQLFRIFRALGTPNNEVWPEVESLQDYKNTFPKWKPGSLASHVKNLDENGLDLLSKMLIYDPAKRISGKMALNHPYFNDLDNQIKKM
T1 sequence (P14635 whole entry partner, the tested form may be a part): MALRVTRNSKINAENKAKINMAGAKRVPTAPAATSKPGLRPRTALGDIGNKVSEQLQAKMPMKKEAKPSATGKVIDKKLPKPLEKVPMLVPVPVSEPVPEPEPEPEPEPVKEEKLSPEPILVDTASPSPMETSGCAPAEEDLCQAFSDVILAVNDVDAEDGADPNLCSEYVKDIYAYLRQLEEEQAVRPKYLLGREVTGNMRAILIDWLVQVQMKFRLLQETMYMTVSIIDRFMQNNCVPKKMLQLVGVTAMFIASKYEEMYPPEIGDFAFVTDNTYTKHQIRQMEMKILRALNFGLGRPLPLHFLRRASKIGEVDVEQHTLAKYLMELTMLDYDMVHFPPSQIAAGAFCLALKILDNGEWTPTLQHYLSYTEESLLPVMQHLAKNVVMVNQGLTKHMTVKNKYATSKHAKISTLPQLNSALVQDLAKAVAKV

On to `CC(=O)Nc1cc(C(=O)Nc2cc([C@H]3CC[C@@H](OC(=O)NC(C)C)C3)[nH]n2)ccc1C=O` [Compound 37, (1R,3S)-3-(3-(3-acetamido-4-formylbenzamido)-1H-pyrazol-5-yl)cyclopentyl isopropylcarbamate], for which the IC50 is 176 nM in assay [1], 15.6 nM in assay [2], 128 nM in assay [3] and 344 nM in assay [4].

Consider `CC(=O)Nc1ccc(C(=O)Nc2cc([C@H]3CC[C@@H](OC(=O)NC(C)C)C3)[nH]n2)cc1C=O` [Compound 38, (1R,3S)-3-[5-(4-acetamido-3-formylbenzamido)-2H-pyrazol-3-yl]cyclopentyl N-isopropylcarbamate], for which the IC50 in assay [1] amounted to 264 nM; in assay [2], 10.6 nM; in assay [3], 576 nM; in assay [4], 542 nM.

Take `CC(C)NC(=O)O[C@@H]1CC[C@H](c2cc(NC(=O)c3ccc(C=O)c4[nH]ncc34)n[nH]2)C1` [Compound 39, (1R,3S)-3-[5-(7-formyl-1H-indazole-4-amido)-2H-pyrazol-3-yl]cyclopentyl N-isopropylcarbamate]: the IC50 in assay [1] worked out at 351 nM; in assay [2] it was 24.7 nM; in assay [3] it was 474 nM; in assay [4], 1130 nM.

Take `CC(C)NC(=O)O[C@@H]1CC[C@H](c2cc(NC(=O)c3cc(C=O)c4[nH]ncc4c3)n[nH]2)C1` [Compound 40, (1R,3S)-3-(3-(7-formyl-1H-indazole-5-carboxamido)-1H-pyrazol-5-yl)cyclopentyl isopropylcarbamate]: the IC50 amounted to 275 nM in assay [1], 24.4 nM in assay [2], 1460 nM in assay [3] and 796 nM in assay [4].

For `CC(C)NC(=O)O[C@@H]1CC[C@H](c2cc(NC(=O)c3cc(-c4cccc(NS(C)(=O)=O)c4C=O)nn3C)n[nH]2)C1` [Compound 41, (1R,3S)-3-{5-[5-(2-formyl-3-methanesulfonamidophenyl)-2-methylpyrazole-3-amido]-2H-pyrazol-3-yl}cyclopentyl N-isopropylcarbamate; trifluoroacetic acid], the IC50 in assay [1] was 20.5 nM; in assay [2], 5.32 nM; in assay [3], 3060 nM; in assay [4] it was 272 nM.

In the case of `CC(C)NC(=O)O[C@@H]1CC[C@H](c2cc(NC(=O)c3cc(-c4cc(F)cc(O)c4C=O)nn3C)n[nH]2)C1` [Compound 42, (1R,3S)-3-{5-[5-(5-fluoro-2-formyl-3-hydroxyphenyl)-2-methylpyrazole-3-amido]-2H-pyrazol-3-yl}cyclopentyl N-isopropylcarbamate; trifluoroacetic acid], the IC50 in assay [1] came out at 10.6 nM; in assay [2], 5.5 nM; in assay [3] it was 2680 nM; in assay [4], 176 nM.

For `CC(C)NC(=O)O[C@@H]1CC[C@H](c2cc(NC(=O)COc3ccc(F)c(O)c3C=O)n[nH]2)C1` [Compound 43, (1R,3S)-3-{5-[2-(4-fluoro-2-formyl-3-hydroxyphenoxy)acetamido]-2H-pyrazol-3-yl}cyclopentyl N-isopropylcarbamate; trifluoroacetic acid], the IC50 in assay [1] is 51.2 nM; in assay [2], 27.2 nM; in assay [3] it was greater than 10000 nM; in assay [4] it was 212 nM.

For `CC(C)NC(=O)O[C@@H]1CC[C@H](c2cc(NC(=O)c3cc(-c4cnccc4C=O)nn3C)n[nH]2)C1` [Compound 44, (1R,3S)-3-(3-(3-(4-formylpyridin-3-yl)-1-methyl-1H-pyrazole-5-carboxamido)-1H-pyrazol-5-yl)cyclopentyl isopropylcarbamate; trifluoroacetic acid], the IC50 in assay [1] was determined as 168 nM; in assay [2], 6.37 nM; in assay [3] it was 1550 nM; in assay [4], 485 nM.

`CC(C)NC(=O)O[C@@H]1CC[C@H](c2cc(NC(=O)COc3cc(C#N)cc(O)c3C=O)n[nH]2)C1` [Compound 47, 1R,3S)-3-(3-(2-(5-cyano-2-formyl-3-hydroxyphenoxy)acetamido)-1H-pyrazol-5-yl)cyclopentyl isopropylcarbamate]: the IC50 in assay [1] was 224 nM; in assay [2], 98.9 nM; in assay [3], 9430 nM; in assay [4] it was 1170 nM.

Turning to `COc1cc(O)c(C=O)c(-c2cc(C(=O)Nc3cc([C@H]4CC[C@@H](OC(=O)NC(C)C)C4)[nH]n3)n(C)n2)c1` [Compound 48, (1R,3S)-3-{5-[5-(2-formyl-3-hydroxy-5-methoxyphenyl)-2-methylpyrazole-3-amido]-2H-pyrazol-3-yl}cyclopentyl N-isopropylcarbamate; trifluoroacetic acid], the IC50 is 10.8 nM in assay [1], 2.28 nM in assay [2], 848 nM in assay [3] and 125 nM in assay [4].

For the molecule `Cc1nc(-c2cccc(O)c2C=O)sc1C(=O)Nc1cc([C@H]2CC[C@@H](OC(=O)NC(C)C)C2)[nH]n1` [Compound 53, (1R,3S)-3-(3-(2-(2-formyl-3-hydroxyphenyl)-4-methylthiazole-5-carboxamido)-1H-pyrazol-5-yl)cyclopentyl isopropylcarbamate], the IC50 in assay [1] was found to be 21.7 nM; in assay [2], 9.39 nM; in assay [3], 3660 nM; in assay [4], 361 nM.

For `CC(C)NC(=O)O[C@@H]1CC[C@H](c2cc(NC(=O)c3cn(-c4cccc(O)c4C=O)nc3C(F)F)n[nH]2)C1` [Compound 54, (1R,3S)-3-(3-(3-(difluoromethyl)-1-(2-formyl-3-hydroxyphenyl)-1H-pyrazole-4-carboxamido)-1H-pyrazol-5-yl)cyclopentyl isopropylcarbamate], the IC50 is 175 nM in assay [1], 23.4 nM in assay [2], greater than 10000 nM in assay [3] and 1690 nM in assay [4].

In the case of `CC(C)NC(=O)O[C@@H]1CC[C@H](c2cc(NC(=O)c3cnc(-c4cccc(O)c4C=O)o3)n[nH]2)C1` [Compound 55, (1R,3S)-3-{5-[2-(2-formyl-3-hydroxyphenyl)-1,3-oxazole-5-amido]-2H-pyrazol-3-yl}cyclopentyl N-isopropylcarbamat], the IC50 in assay [1] is 69.9 nM; in assay [2] it was 21.9 nM; in assay [3] it was greater than 10000 nM; in assay [4], 1430 nM.

Consider `Cc1ccc(OCC(=O)Nc2cc([C@H]3CC[C@@H](OC(=O)NC(C)C)C3)[nH]n2)c(C=O)c1O` [Compound 56, (1R,3S)-3-(3-(2-(2-formyl-3-hydroxy-4-methylphenoxy)acetamido)-1H-pyrazol-5-yl)cyclopentyl isopropylcarbamate], for which the IC50 was 4.83 nM in assay [1], 1.32 nM in assay [2], greater than 10000 nM in assay [3] and 75.8 nM in assay [4].

As to `Cc1cc(O)c(C=O)c(OCC(=O)Nc2cc([C@H]3CC[C@@H](OC(=O)NC(C)C)C3)[nH]n2)c1` [Compound 57, (1R,3S)-3-(3-(2-(2-formyl-3-hydroxy-5-methylphenoxy)acetamido)-1H-pyrazol-5-yl)cyclopentyl isopropylcarbamate], the IC50 was 21.9 nM in assay [1], 3.06 nM in assay [2], greater than 9580 nM in assay [3] and 110 nM in assay [4].

Turning to `CC(C)NC(=O)O[C@@H]1CC[C@H](c2cc(NC(=O)c3cc(-c4cccc(O)c4C=O)n(C)n3)n[nH]2)C1` [Compound 59, (1R,3S)-3-{5-[5-(2-formyl-3-hydroxyphenyl)-1-methylpyrazole-3-amido]-2H-pyrazol-3-yl}cyclopentyl N-isopropylcarbamate], the IC50 in assay [1] is 362 nM; in assay [2], 32.1 nM; in assay [3] it was greater than 10000 nM; in assay [4], 2300 nM.

In the case of `CCn1nc(-c2cccc(O)c2C=O)cc1C(=O)Nc1cc([C@H]2CC[C@@H](OC(=O)NC(C)C)C2)[nH]n1` [Compound 60, (1R,3S)-3-{5-[2-ethyl-5-(2-formyl-3-hydroxyphenyl)pyrazole-3-amido]-2H-pyrazol-3-yl}cyclopentyl N-isopropylcarbamate; trifluoroacetic acid], the IC50 came to 15.1 nM in assay [1], 6.5 nM in assay [2], 3630 nM in assay [3] and 230 nM in assay [4].
